Laboratory results as given in patent publication US20220096516A1, “OLIGONUCLEOTIDE MOLECULE AND APPLICATION THEREOF IN TUMOR THERAPY” (Ractigen Therapeutics, priority 2019, published 2022).
d = 2'-deoxy (DNA); r = 2'-OH (RNA)

What was measured:
[1] = test system: prostatic cancer cell line PC3; experiment: Cell viability by CCK-8 method, PC3; type: cell-based, human; details: PC3, 10 nM, 72 h, FIG. 7B
Description: (§1) 8 LHPP promoter-targeting saRNAs were individually transfected into cancer cells at 10 nM for 72 h. In FIG. 7A, the expression level of LHPP mRNA was analyzed by RT-qPCR. In FIG. 7B, cell viability in the saRNA treatment group was evaluated by the CCK-8 method and recorded as a percentage relative to the viability of cells in a control (Mock) treatment group.
(§2) The cell viability was detected by the following CCK-8 method: the cCells were plated into a 96-well plate at 3-5×10^3 cells/well, cultured overnight, and transfected with the oligonucleotide duplexes. After 72 hour of transfection, 10 uL of CCK-8 solution (Dojindo Molecular Technologies) was added into each well. After 1 hour of incubation at 37° C., a microplate reader was used to measure absorbances at 450 nm.
(§3) In order to further evaluate the effect of LHPP saRNAs in inducing the mRNA expression of the LHPP gene and inhibiting the proliferation of cancer cells, eight screened saRNAs (RAG7-132, RAG7-133, RAG7-139, RAG7-177, RAG7-178, RAG7-694, RAG7-707 and RAG7-892) each were transfected into the liver cancer cell lines Huh7 (Medical Cell Resource Center, Tohoku University, Japan), HepG2 (ATCC), Hep3B (ATCC), Li-7 (Medical Cell Resource Center, Tohoku University, Japan) and SK-HEP-1 (ATCC), a lung cancer cell line A549 (ATCC), a bladder cancer cell line T24 (ATCC), a prostatic cancer cell line PC3 (ATCC), and a glioma cell line U87MG (ATCC). The mRNA expression and cell viability of the transfected cells were measured.

Li-7 cells = experiment: Cell viability by CCK-8 method, Li-7; type: cell-based, human; details: Li-7, 10 nM, 72 h, FIG. 6B
Description: as §1, with “into liver” for “into”, “6A,” for “7A,”, “6B,” for “7B,”
as §2, with “nm. […]” for “nm.”

[2] = test system: bladder cancer cell line T24; experiment: Cell viability by CCK-8 method, T24; type: cell-based, human; details: T24, 10 nM, 72 h, FIG. 7B
Description: as §1, §2, §3

glioma cell line U87MG = experiment: Cell viability by CCK-8 method, U87MG; type: cell-based, human; details: 10 nM, 72 h, FIG. 7B
Description: as §1, §2, §3

LHPP gene = experiment: LHPP mRNA expression by RT-qPCR in cancer cell lines; type: cell-based, human; details: 72 h
Description: as §1, with “into liver” for “into”, “6A,” for “7A,”, “6B,” for “7B,”
as §1, §3

Huh7 cells = experiment: Cell viability by CCK-8 method, Huh7; type: cell-based, human; details: Huh7, 10 nM, 72 h, FIG. 6B
Description: The 290 saRNAs targeting the LHPP promoter were individually transfected into Huh7 cells, and 72 hour later, one-step RT-qPCR was employed to analyze the expression levels of LHPP mRNA and cell viability was detected by the CCK-8 method.
as §2, §3

SK-HEP-1 cells = experiment: Cell viability by CCK-8 method, SK-HEP-1; type: cell-based, human; details: SK-HEP-1, 10 nM, 72 h, FIG. 6B
Description: as §1, with “into liver” for “into”, “6A,” for “7A,”, “6B,” for “7B,”
as §2, with “nm. […]” for “nm.”

HepG2 transplanted tumor = HepG2 transplanted tumor growth in nude mice; parameters: species or system BALB/c nude mice; details: HepG2 xenograft, day 13; saRNA (in vivo-jetPEI) 1 mg/kg intratumor days 1, 4, 7, 10; regorafenib 3 mg/kg intragastric daily day 1-12; vehicle 118%
Description: To prepare the saRNA formulation, the in vivo-jetPEI (201-10G, Polyplus-transfection, France) was adopted as an saRNA delivery system. The preparation process is briefly described as follows. An saRNA was first diluted in 10% glucose solution to obtain a solution A. According to the instructions of the manufacturer, a required amount of in vivo-jetPEI was diluted in 10% glucose solution to obtain a solution B. Equal volumes of the solution A and the solution B were mixed (nitrogen-to-phosphorus ratio: 8; final concentration of glucose: 5%). After mixing, the mixture was let to stand at room temperature for 15 minutes for later use.
HepG2 cells in the logarithmic growth phase were obtained and counted, and then the cell suspension was regulated to 5×10^7 cells/mL and subcutaneously inoculated into the right armpit of BALB/c nude mice at a volume of 0.1 mL per mouse. […] Starting from the initial administration, the long diameter and the short diameter of each tumor were measured with a vernier caliper every two days. The tumor volume was calculated according to the formula V=(l×w^2)/2, wherein 1 represents the longest diameter of the tumor and w represents the diameter parallel to the surface of the tumor and perpendicular to the long diameter. A tumor growth curve and size and morphology of the tumor after anatomy were recorded during the administration.

Q: Which results are given for “RAG7-133: saRNA duplex; sense GCUCUUUGUCCGCUGAUCUTT (SEQ ID NO: 1), antisense AGAUCAGCGGACAAAGAGCTT (SEQ ID NO: 165) (sugars from the 5' end r19 d2, backbone not given here)”?
A: cell proliferation (cell viability, CCK-8) [1]: inhibited cell proliferation; cell proliferation (cell viability, CCK-8) (Li-7 cells): inhibited cell proliferation; cell proliferation (cell viability, CCK-8) [2]: inhibited cell proliferation; cell proliferation (cell viability, CCK-8) (glioma cell line U87MG): inhibited cell proliferation; expression of LHPP gene (mRNA) (LHPP gene; Hep3B, 10 nM, FIG. 6A): induced the expression of LHPP gene to different degrees; expression of LHPP gene (mRNA) (LHPP gene; HepG2, 10 nM, FIG. 6A): induced the expression of LHPP gene to different degrees; expression of LHPP gene (mRNA) (LHPP gene; Huh7, 10 nM, FIG. 6A): induced the expression of LHPP gene to different degrees; expression of LHPP gene (mRNA) (LHPP gene; Li-7, 10 nM, FIG. 6A): induced the expression of LHPP gene to different degrees; expression of LHPP gene (mRNA) (LHPP gene; PC3, 10 nM, FIG. 7A): induced the expression of LHPP gene to different degrees; expression of LHPP gene (mRNA) (LHPP gene; SK-HEP-1, 10 nM, FIG. 6A): induced the expression of LHPP gene to different degrees; expression of LHPP gene (mRNA) (LHPP gene; T24, 10 nM, FIG. 7A): induced the expression of LHPP gene to different degrees; expression of LHPP gene (mRNA) (LHPP gene; U87MG, 10 nM, FIG. 7A): induced the expression of LHPP gene to different degrees; cell proliferation (cell viability, CCK-8) (Huh7 cells): inhibited cell proliferation; cell proliferation (cell viability, CCK-8) (SK-HEP-1 cells): inhibited cell proliferation; tumor volume increase compared with that at the beginning of treatment (HepG2 transplanted tumor): 34%
